Earlier results on one compound are cited in patent US20260240156A1, “OIL-BASED DISPERSION COMPOSITIONS OF SOLID PARTICULATE HYGROSCOPIC OR WATER-SOLUBLE PESTICIDES” (priority 2023, published 2026).

The structures appear in SMILES notation.

For this data set the following is noted: in water compared to non-aqueous systems.

On to `CC1=NNC(=O)N(/N=C/c2cccnc2)C1` [Pymetrozine, 6-methyl-4-[(E)-(pyridin-3ylmethylene)amino]-4,5-dihydro-2H-[1,2,4]-triazin-3-one], for which the Photodegradation result was “significantly faster in water compared to non-aqueous systems”.
